Numbered stars: 1 amine (or outer) side, 2 acyl side, 3 side chain; on linkers, the order of the positions; unused ones are H or OH. Bridge positions count the residues as written; N and C are the ends. Square brackets hold non-standard residues; d marks the D form. Peptide text beside a SMILES is read from it. * marks the point of attachment. hPhe(3-Cl-4-CF3) = N[C@@H](CCc1ccc(C(F)(F)F)c(Cl)c1)C(=O)O; hPhe(3-F,4-CF3) = N[C@@H](CCc1ccc(C(F)(F)F)c(F)c1)C(=O)O; NEtPhe(4-CF3) = CCN[C@@H](Cc1ccc(C(F)(F)F)cc1)C(=O)O; NMePhe(4-CF3) = CN[C@@H](Cc1ccc(C(F)(F)F)cc1)C(=O)O; hPhe(4-CF3) = N[C@@H](CCc1ccc(C(F)(F)F)cc1)C(=O)O; NMePhe(4-Cl) = CN[C@@H](Cc1ccc(Cl)cc1)C(=O)O; NMePhe(2-Cl) = CN[C@@H](Cc1ccccc1Cl)C(=O)O; hPhe(4-Cl) = N[C@@H](CCc1ccc(Cl)cc1)C(=O)O; NMedβ3hAla = C[C@H](CC(=O)[*:2])N(C)[*:1]; Pro(4,4-F2) = O=C(O)[C@@H]1CC(F)(F)CN1; NMeCha = CN[C@@H](CC1CCCCC1)C(=O)O; NMeChg = CN[C@H](C(=O)O)C1CCCCC1; NMeF = CN[C@@H](Cc1ccccc1)C(=O)O; NMeI = CC[C@H](C)[C@H](NC)C(=O)O; NMeD = CN[C@@H](CC(=O)O)C(=O)O; NMeL = CN[C@@H](CC(C)C)C(=O)O; NMeNva = CCC[C@H](NC)C(=O)O; NMeV = CN[C@H](C(=O)O)C(C)C; d(β3hA) = C[C@@H](N)CC(=O)O; NMeS = CN[C@@H](CO)C(=O)O; NMeA = CN[C@@H](C)C(=O)O; Pyrrolidide = C1CCN(*)C1; Ac5c = NC1(C(=O)O)CCCC1; Aze = O=C(O)[C@@H]1CCN1; Ac4c = NC1(C(=O)O)CCC1; Aib = CC(C)(N)C(=O)O; NEtG = CCNCC(=O)O; Sar = CNCC(=O)O; Propyl = CCC*
The compounds below were run against protein-protein interaction between Kras and SOS1 (biotin-tagged human Kras loaded with GDP, His-tagged human SOS1) (Homo sapiens (Human), UniProt P01116, G12D) (assay: Protein-protein interaction inhibition between Kras and SOS1 (KrasG12D-SOS PPI) using AlphaScreen). Details: AlphaScreen; biotin-tagged human Kras loaded with GDP, His-tagged human SOS1; read-out: KRAS G12D-SOS PPI IC50.
Type: biochemical
Work on `CC[C@H](C)[C@@H]1NC(=O)[C@H](CC(C)C)N(C)C(=O)C[C@@H](C)NC(=O)[C@H](C(C)C)N(C)C(=O)C2(CCCC2)NC(=O)[C@@H]2CCCN2C(=O)[C@H](CCc2ccc(C(F)(F)F)c(Cl)c2)NC(=O)CN(C)C(=O)[C@H](CC2CCCCC2)N(C)C(=O)[C@@H]2CCN2C(=O)[C@@H]2CCN2C1=O` [Compound 181] (cyclo([Ac5c][NMeV][d(β3hA)][NMeL]I[Aze][Aze][NMeCha][Sar][hPhe(3-Cl-4-CF3)]P)) yielded an IC50 of 130 nM. `CC[C@H](C)[C@@H]1NC(=O)[C@H](CC2CCCCC2)N(C)C(=O)C[C@@H](C)NC(=O)[C@H](CC(C)C)N(C)C(=O)C(C)(C)NC(=O)[C@H](CC(C)C)N(C)C(=O)[C@H](CCc2ccc(C(F)(F)F)cc2)NC(=O)CN(C)C(=O)[C@H](Cc2ccc(Cl)cc2)N(C)C(=O)CN(C)C(=O)CN(C)C1=O` [Compound 615] (cyclo([Aib][NMeL][d(β3hA)][NMeCha]I[Sar][Sar][NMePhe(4-Cl)][Sar][hPhe(4-CF3)][NMeL])) was tested, and the IC50 was 220 nM. `CCC[C@H]1C(=O)N2CC[C@H]2C(=O)N(C)[C@@H](CC2CCCCC2)C(=O)N(C)CC(=O)N[C@@H](CCc2ccc(C(F)(F)F)c(Cl)c2)C(=O)N2CCC[C@H]2C(=O)NC2(CCCC2)C(=O)N(C)[C@@H](C(C)C)C(=O)N[C@H](C)CC(=O)N(C)[C@@H](CC(C)C)C(=O)N[C@@H]([C@@H](C)CC)C(=O)N1C` [Compound 1560] (cyclo([Ac5c][NMeV][d(β3hA)][NMeL]I[NMeNva][Aze][NMeCha][Sar][hPhe(3-Cl-4-CF3)]P)) gave an IC50 of 160 nM. `CC[C@H](C)[C@@H]1NC(=O)[C@H](C)N(C)C(=O)C[C@@H](C(=O)N2CCCC2)N(C)C(=O)[C@H](C(C)C)N(C)C(=O)C2(CCCC2)NC(=O)[C@H](Cc2ccccc2Cl)N(C)C(=O)[C@H](CCc2ccc(Cl)cc2)NC(=O)CN(C)C(=O)[C@H](CC2CCCCC2)N(C)C(=O)CN(C)C(=O)CN(C)C1=O` [Compound 607] ([NMeA]I[Sar][Sar][NMeCha][Sar][hPhe(4-Cl)][NMePhe(2-Cl)][Ac5c][NMeV][NMeD]-Pyrrolidide; lactam N-11) showed an IC50 of 220 nM. In the case of `CC[C@H](C)[C@@H]1NC(=O)[C@H](CC(C)C)N(C)C(=O)C[C@@H](C(=O)N2CCCC2)N(C)C(=O)[C@H]([C@@H](C)CC)N(C)C(=O)C2(CCCC2)NC(=O)[C@@H]2CCCN2C(=O)[C@H](CCc2ccc(C(F)(F)F)c(Cl)c2)NC(=O)CN(CC)C(=O)[C@H](Cc2ccc(C(F)(F)F)cc2)N(C)C(=O)[C@@H]2CCN2C(=O)[C@H](C)N(C)C1=O` [Compound 1159] ([NMeL]I[NMeA][Aze][NMePhe(4-CF3)][NEtG][hPhe(3-Cl-4-CF3)]P[Ac5c][NMeI][NMeD]-Pyrrolidide; lactam N-11), the IC50 is reported as 2.8 nM. `CC[C@H](C)[C@@H]1NC(=O)[C@H](CC(C)C)N(C)C(=O)C[C@@H](C)NC(=O)[C@H](CC(C)C)N(C)C(=O)C2(CCCC2)NC(=O)[C@H](CC(C)C)N(C)C(=O)[C@H](CCc2ccc(C(F)(F)F)cc2)NC(=O)CN(C)C(=O)[C@H](Cc2ccc(Cl)cc2)N(C)C(=O)CN(C)C(=O)CN(C)C1=O` [Compound 843] (cyclo([Ac5c][NMeL][d(β3hA)][NMeL]I[Sar][Sar][NMePhe(4-Cl)][Sar][hPhe(4-CF3)][NMeL])) gave an IC50 of 49 nM. `CC[C@H](C)[C@@H]1NC(=O)[C@H](CC(C)C)N(C)C(=O)C[C@@H](C)N(C)C(=O)[C@H](C2CCCCC2)N(C)C(=O)C2(CCC2)NC(=O)[C@@H]2CC(F)(F)CN2C(=O)[C@H](CCc2ccc(C(F)(F)F)c(Cl)c2)NC(=O)CN(C)C(=O)[C@H](Cc2ccc(C(F)(F)F)cc2)N(CC)C(=O)[C@@H]2CCN2C(=O)[C@H](C)NC1=O` [Compound 138] (cyclo(A[Aze][NEtPhe(4-CF3)][Sar][hPhe(3-Cl-4-CF3)][Pro(4,4-F2)][Ac4c][NMeChg][NMedβ3hAla][NMeL]I)) showed an IC50 of 44 nM. `CC[C@H](C)[C@@H]1NC(=O)[C@H](C)N(C)C(=O)C[C@@H](C)NC(=O)[C@H](CC(C)C)N(C)C(=O)[C@H](Cc2ccccc2)N(C)C(=O)[C@H](CC(C)C)NC(=O)[C@H](CCc2ccc(C(F)(F)F)cc2)NC(=O)CN(C)C(=O)[C@H](Cc2ccc(Cl)cc2)N(C)C(=O)CN(C)C(=O)CN(C)C1=O` [Compound 271] (cyclo(I[Sar][Sar][NMePhe(4-Cl)][Sar][hPhe(4-CF3)]L[NMeF][NMeL][d(β3hA)][NMeA])) was tested, and the IC50 was 65 nM. With `CCCOC[C@H]1C(=O)N(C)CC(=O)N[C@@H](CCc2ccc(C(F)(F)F)c(F)c2)C(=O)N2CCC[C@H]2C(=O)NC2(CCCC2)C(=O)N(C)[C@@H]([C@@H](C)CC)C(=O)N(C)[C@H](C(=O)N2CCCC2)CC(=O)N(C)[C@@H](CC(C)C)C(=O)N[C@@H]([C@@H](C)CC)C(=O)N(C)[C@@H](C)C(=O)N2CC[C@H]2C(=O)N1C` [Compound 684] ([NMeL]I[NMeA][Aze][NMeS](Propyl)[Sar][hPhe(3-F,4-CF3)]P[Ac5c][NMeI][NMeD]-Pyrrolidide; lactam N-11) the IC50 was 1.9 nM.
